Some test systems named below: HCT-116; Hs-578T; IGROV-1; MDA-MB-231; MDA-MB-435; Malme-3M; OVCAR-8; RPMI-8226; SK-MEL-28; SK-MEL-2; SNB-75; TK-10; U-251; UACC-257; UACC-62; UO-31; BT-549; CAKI-1; SNB-19.
Holding throughout (experiment): DTP human tumour cell line panel, 48 h

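A five-concentration, 48-hour dose response in 96-well plates underlies each endpoint, interpolated linearly between surrounding concentrations. At the GI50, growth is halved.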 Activity calls are given as the source filed them. Rule as the data show it: active = GI50 up to about 1.1 µM and inactive = higher.

The GI50 is the concentration that inhibits growth by half.

As for `CC(C)[C@]12O[C@H]1[C@@H]1O[C@@]13[C@@]1(C)CCC4=C(COC4=O)[C@@H]1C[C@@H]1O[C@@]13C2=O` [TRIPTONIDE], the GI50 in the assay on HCT-116 was < 0.01 µM (active); in the assay on Hs-578T, < 0.0158 µM (active); in the assay on IGROV-1, < 0.01 µM (active); in the assay on MDA-MB-231, 0.0248 µM (active); in the assay with MDA-MB-435, 0.0103 µM (active); in the assay on Malme-3M it was 0.0191 µM (active). Also, the GI50 with OVCAR-8 is 0.0339 µM (active); in the assay on RPMI-8226 it was < 0.01 µM (active); with SK-MEL-28, 0.0126 µM (active); in the assay on SK-MEL-2 it was 0.0119 µM (active); in the assay with SNB-75, 0.0108 µM (active); in the assay on TK-10 it was 0.0261 µM (active). The GI50 in the assay on U-251 is 0.101 µM (active); in the assay with UACC-257 it was < 0.0164 µM (active); with UACC-62, 0.0122 µM (active); in the assay with UO-31 it was 0.0123 µM (active).

Consider `CCOP(=O)(OCC)OC1CC(n2cnc3c(N(CC)CC)ncnc32)OC1CO[Si](C)(C)C(C)(C)C` (stereo not given), for which the GI50 in the assay on BT-549 was 16.1 µM (inactive); in the assay on CAKI-1, 17.5 µM (inactive); in the assay on HCT-116 it was 16.8 µM (inactive); in the assay with Hs-578T it was 22 µM (inactive); with IGROV-1, 16.9 µM (inactive); with MDA-MB-435, 17.3 µM (inactive). The GI50 in the assay on Malme-3M is 22.4 µM (inactive); with OVCAR-8 it was 21.1 µM (inactive); in the assay on RPMI-8226, 28 µM (inactive); with SK-MEL-28, 18.5 µM (inactive); in the assay on SK-MEL-2, 21.7 µM (inactive); in the assay with SNB-19 it was 18.2 µM (inactive). Besides, the GI50 in the assay with SNB-75 was 11.1 µM (inactive); in the assay on TK-10, 18.3 µM (inactive); in the assay on U-251, 15.1 µM (inactive); with UACC-257 it was 16.5 µM (inactive); in the assay on UACC-62, 14.8 µM (inactive); in the assay on UO-31, 19.1 µM (inactive).

Consider `CCOn1c(C2(CC3CCN(C(=O)c4ccccc4)CC3)OCCO2)cc2ccccc21`, for which the GI50 in the assay on BT-549 is 19.4 µM (inactive); with CAKI-1 it was 15.4 µM (inactive); with HCT-116, 15.8 µM (inactive); in the assay on IGROV-1 it was 15 µM (inactive); in the assay with MDA-MB-231, 15.5 µM (inactive); in the assay on MDA-MB-435 it was 14.3 µM (inactive). In addition, the GI50 was 18.2 µM (inactive) in the assay with Malme-3M; 14.3 µM (inactive) with OVCAR-8; 8.51 µM (inactive) in the assay with RPMI-8226; 13.2 µM (inactive) with SK-MEL-28; 16.8 µM (inactive) in the assay with SK-MEL-2; 16.7 µM (inactive) with SNB-19. The GI50 in the assay with SNB-75 was 16.5 µM (inactive); in the assay with TK-10, 12.2 µM (inactive); in the assay with U-251 it was 16.3 µM (inactive); in the assay with UACC-257 it was 11.1 µM (inactive); in the assay with UACC-62, 11 µM (inactive); with UO-31, 14 µM (inactive).

Consider `O=C1CSC(=O)/C1=C\NNc1nc2ccccc2o1`, for which the GI50 in the assay on CAKI-1 is 23.9 µM (inactive); in the assay with HCT-116, 17 µM (inactive); in the assay on Hs-578T, 52.7 µM (inactive); in the assay on MDA-MB-231 it was 30.9 µM (inactive); in the assay on MDA-MB-435 it was 65.9 µM (inactive); in the assay with Malme-3M it was 31.5 µM (inactive). The GI50 in the assay on OVCAR-8 was 13.6 µM (inactive); with SK-MEL-28 it was 67 µM (inactive); in the assay with SK-MEL-2, 37.2 µM (inactive); in the assay on SNB-19, 19.6 µM (inactive); with TK-10, 53.3 µM (inactive); in the assay with UACC-257 it was 29.7 µM (inactive). Also, in the assay on UACC-62, the GI50 is 18 µM (inactive).

Regarding `CC1=C/C(=N\N(C)C)C(C(O)(C(F)(F)F)C(F)(F)F)C(C)(C)C1` (stereo not given), the GI50 is > 100 µM (inactive) in the assay on CAKI-1; > 100 µM (inactive) in the assay with HCT-116; 72.4 µM (inactive) in the assay on Hs-578T; > 100 µM (inactive) in the assay on IGROV-1; > 100 µM (inactive) in the assay on MDA-MB-231; > 100 µM (inactive) with MDA-MB-435. In addition, the GI50 was 97.1 µM (inactive) in the assay on Malme-3M; > 100 µM (inactive) in the assay on OVCAR-8; 46.8 µM (inactive) with RPMI-8226; > 100 µM (inactive) with SK-MEL-28; > 100 µM (inactive) in the assay with SK-MEL-2; > 100 µM (inactive) in the assay with SNB-19. In addition, the GI50 with SNB-75 was 27.1 µM (inactive); in the assay on TK-10, > 100 µM (inactive); in the assay with U-251, > 100 µM (inactive); in the assay with UACC-257, > 100 µM (inactive); with UACC-62 it was > 100 µM (inactive); in the assay on UO-31, > 100 µM (inactive).

Consider `COC1C=CC23c4cc5c(cc4C(O)OC2CN(C)C3C1)OCO5` (stereo not given), for which the GI50 was 2.98 µM (inactive) in the assay with CAKI-1; 1.07 µM (active) in the assay with HCT-116; 4.72 µM (inactive) in the assay with IGROV-1; 1.9 µM (inactive) with Malme-3M; 2.16 µM (inactive) with OVCAR-8; 2.56 µM (inactive) in the assay with RPMI-8226. Moreover, the GI50 with SNB-19 was 1.65 µM (inactive); with UACC-257, 1.77 µM (inactive); with UACC-62, 4.13 µM (inactive); in the assay on UO-31, 2.69 µM (inactive).

On to `Oc1nnc(-c2ccc(F)cc2)cc1-c1ccccc1`, for which the GI50 was 69.5 µM (inactive) in the assay on CAKI-1; > 100 µM (inactive) in the assay with HCT-116; 48.3 µM (inactive) with Hs-578T; 72.8 µM (inactive) in the assay with IGROV-1; > 100 µM (inactive) in the assay on MDA-MB-231; > 100 µM (inactive) in the assay on MDA-MB-435. Also, the GI50 is 97.5 µM (inactive) in the assay on Malme-3M; 50.4 µM (inactive) in the assay on OVCAR-8; 75 µM (inactive) with RPMI-8226; 83.9 µM (inactive) in the assay with SK-MEL-28; 80.7 µM (inactive) in the assay on SK-MEL-2; 44.8 µM (inactive) in the assay on SNB-19. Besides, the GI50 with TK-10 was 71.4 µM (inactive); with U-251, 35.8 µM (inactive); in the assay on UACC-257 it was > 100 µM (inactive); with UACC-62, 76.2 µM (inactive).

Consider `c1cc2c(cc1[C@@H]1OC[C@@H]3[C@H]1CO[C@H]3c1ccc3c(c1)OCO3)OCO2`, for which the GI50 in the assay with CAKI-1 is 30.1 µM (inactive); in the assay with HCT-116 it was 26.9 µM (inactive); in the assay on IGROV-1, 87.1 µM (inactive); with MDA-MB-231 it was 94 µM (inactive); in the assay with MDA-MB-435, 54.2 µM (inactive); with Malme-3M it was 53.3 µM (inactive). Further, the GI50 was > 100 µM (inactive) in the assay on OVCAR-8; 46.3 µM (inactive) in the assay on RPMI-8226; > 100 µM (inactive) in the assay on SK-MEL-28; > 100 µM (inactive) with SK-MEL-2; > 100 µM (inactive) with SNB-19; > 100 µM (inactive) with SNB-75. In addition, the GI50 is 30.3 µM (inactive) with TK-10; 60.4 µM (inactive) in the assay with U-251; 13.7 µM (inactive) in the assay on UACC-257; > 100 µM (inactive) in the assay on UACC-62; 65.8 µM (inactive) with UO-31.

`CC(C)(C)OC(=O)CC(NC(=O)OC(C)(C)C)C(=O)N[C@@H]1CCCC[C@H]1C(=O)OCc1ccccc1` (stereo not given in full): the GI50 was 38.4 µM (inactive) in the assay with CAKI-1; 17.5 µM (inactive) in the assay on HCT-116; 15.7 µM (inactive) in the assay on Hs-578T; 37 µM (inactive) in the assay with IGROV-1; 32.5 µM (inactive) in the assay on MDA-MB-231; 29.6 µM (inactive) in the assay on MDA-MB-435. Further, the GI50 in the assay on Malme-3M is 33.7 µM (inactive); in the assay with OVCAR-8, 28.8 µM (inactive); in the assay on RPMI-8226, 20.5 µM (inactive); with SK-MEL-28, > 100 µM (inactive); in the assay on SK-MEL-2, 32.3 µM (inactive); in the assay on SNB-19, 33.3 µM (inactive). Also, the GI50 in the assay on SNB-75 is 23.1 µM (inactive); with TK-10, 17.8 µM (inactive); in the assay with U-251 it was 19.5 µM (inactive); in the assay with UACC-257, 30.2 µM (inactive); in the assay with UACC-62 it was 16.2 µM (inactive); in the assay with UO-31, 24.2 µM (inactive).

For `O=c1c2ccc(Cl)cc2oc2c(CNc3ccc(S(=O)(=O)Nc4ncccn4)cc3)cccc12`, the GI50 in the assay on BT-549, in the assay on CAKI-1, in the assay on HCT-116, in the assay with IGROV-1, in the assay with MDA-MB-231 and in the assay on MDA-MB-435 was > 100 µM (inactive) each time. The GI50 in the assay with Malme-3M, with OVCAR-8, in the assay on RPMI-8226, in the assay on SK-MEL-28, in the assay with SK-MEL-2 and with SNB-19 was > 100 µM (inactive) in each case. Moreover, the GI50 in the assay with SNB-75, with TK-10, with U-251, in the assay with UACC-257, in the assay with UACC-62 and in the assay with UO-31 was > 100 µM (inactive) each time.

Regarding `O=C(O)CC(Cc1ccccc1)C(=O)O` (stereo not given), the GI50 in the assay with BT-549 is > 100 µM (inactive); in the assay with CAKI-1, > 100 µM (inactive); in the assay with HCT-116, > 100 µM (inactive); in the assay with Hs-578T, 50.5 µM (inactive); in the assay on IGROV-1, > 100 µM (inactive); with MDA-MB-435, > 100 µM (inactive). Also, the GI50 in the assay on Malme-3M, with OVCAR-8, in the assay on RPMI-8226, with SK-MEL-28, with SK-MEL-2 and in the assay on SNB-19 was > 100 µM (inactive) throughout. Moreover, the GI50 in the assay with TK-10, with U-251, with UACC-257, in the assay on UACC-62 and in the assay on UO-31 was > 100 µM (inactive) in each case.

Regarding `Cc1cc(S(=O)(=O)N/C(=C(\C#N)C(=O)c2ccc(Cl)cc2)[n+]2ccc(N(C)C)cc2)c([S-])cc1Cl`, the GI50 is > 100 µM (inactive) with BT-549; > 100 µM (inactive) in the assay on CAKI-1; 19.8 µM (inactive) with HCT-116; > 100 µM (inactive) with IGROV-1; > 100 µM (inactive) with MDA-MB-231; > 100 µM (inactive) in the assay with MDA-MB-435. Besides, the GI50 is 0.836 µM (active) in the assay on Malme-3M; > 100 µM (inactive) in the assay on OVCAR-8; 45.2 µM (inactive) in the assay with RPMI-8226; > 100 µM (inactive) in the assay with SK-MEL-28; 4.84 µM (inactive) with SK-MEL-2; 43.2 µM (inactive) with TK-10. In addition, the GI50 in the assay with U-251 is > 100 µM (inactive); in the assay on UACC-257 it was < 0.01 µM (active); with UACC-62, > 100 µM (inactive); in the assay with UO-31 it was > 100 µM (inactive).

For the origin of these results see ChEMBL document CHEMBL1201862, “PubChem BioAssay data set” (2004).
